# Assay results: patent US20100159030A1, “METHODS FOR DETECTING AND MODULATING THE SENSITIVITY OF TUMOR CELLS TO ANTI-MITOTIC AGENTS AND FOR MODULATING TURMORGENICITY” (NewSouth Innovations Pty Limited, priority 2007, published 2010)
# What was measured:
# CCRF-CEM Leukaemia cells = assay type: cell-based; conditions: 2ME2-resistant sublines
# Source text: The tubulin-binding agent 2-methoxyestradiol (2ME2) binds to β-tubulin near the colchicine-binding site, inhibits microtubule polymerization, and induces mitotic arrest. CCRF-CEM Leukaemia cells that display increasing resistance to 2ME2 were selected, and four of the highly 2ME2 resistant leukaemia sublines were chosen for detailed analysis.
# H460 cells = assay: Apoptosis induction, Annexin V-FITC flow cytometry; assay type: cell-based, Human; conditions: 48 h
# Description: Annexin V-FITC staining followed by flow cytometry analysis was performed to address whether the increase in the sub-G1 population following exposure to tubulin-binding agents in the βIII-tubulin siRNA treated cells was related to an increase in apoptosis induction. Apoptosis induction was determined by transfecting H460 cells with siRNA for 72 h and harvesting (adherent and suspension) cells 48 h after drug treatment, as previously described in Pasquier et al., Mol Cancer Ther 2004; 3:1301-10. Briefly, 1×10^5 cells were incubated with Annexin V-FITC and propidium iodide for 15 min in the dark (Becton-Dickinson), immediately followed by flow cytometry using a FACSCalibur (Becton-Dickinson). Cytogram analysis was performed using CellQuest® software.
structure (smiles),measurement,setting,value
"CC(=O)O[C@H]1C(=O)[C@@]2(C)[C@H]([C@H](OC(=O)c3ccccc3)[C@]3(O)C[C@H](OC(=O)[C@H](O)[C@@H](NC(=O)c4ccccc4)c4ccccc4)C(C)=C1C3(C)C)[C@]1(OC(C)=O)CO[C@@H]1C[C@@H]2O [Paclitaxel, paclitaxel]",cross-resistance of the 2ME2-resistant cells,CCRF-CEM Leukaemia cells,not cross resistant
same,concentration from which apoptosis is induced,H460 cells; control siRNA treated cells,≥ 5 nM
same,concentration from which apoptosis is induced,H460 cells; βIII-tubulin siRNA treated cells,≥ 1 nM
same,percentage of apoptotic cells,"H460 cells; βIII-tubulin siRNA vs control siRNA cells, paclitaxel 1, 2, 5 nM, cisplatin 0.4 or 1 μM",significantly higher
